What was measured:
[1] = test system: S. enterica; experiment: checkerboard assay with colistin; type: cell-based, Salmonella enterica; settings: R-1 with colistin; FIC < 0.5 indicates synergy
[2] = test system: genes linked to the PhoPQ TCS; settings: cited from earlier work
[3] = test system: polymyxin-resistant S. enterica strain EG9492; settings: co-treatment of resistant strain EG9492s; cited from earlier work

Nc1nc2ccc(OC(F)(F)F)cc2s1 [R-1, riluzole]
fractional inhibitory concentration (FIC) value [1]: 0.28
expression of genes linked to the PhoPQ TCS [2]: downregulation
change in the colistin MIC [3]: ~ 8 fold
